# Values quoted from earlier work, collected in Sander's compilation of Henry's law constants.
# Experiment: Henry solubility constant Hcp at 298.15 K (mol/(m3 Pa))
# Details: cited value
# [1] = reference: Burkholder et al. (2015)
# [2] = reference: Burkholder et al. (2019)
# [3] = reference: Fogg and Sangster (2003)
# [4] = reference: Barcelo and Hennion (1997)
# [5] = reference: Sander et al. (2011)
# [6] = reference: Mackay et al. (1995)
# [7] = reference: Sander et al. (2006)
compound,measurement,setting,value
"c1ccc(CCc2ccccc2)cc1 [1,2-diphenylethane]",Henry solubility constant Hcp,reference: Mackay et al. (1992b),0.059
C=CC=O [propenal],Henry solubility constant Hcp,reference: Brockbank (2013),0.072
same,Henry solubility constant Hcp,reference: Gaffney and Senum (1984),0.081
same,Henry solubility constant Hcp,reference: Goldstein (1982),0.1
same,Henry solubility constant Hcp,reference: Howard (1989),2.2
CC(C)SC(C)C [di-(2-propyl)-sulfide],Henry solubility constant Hcp,reference: Brockbank (2013),0.0028
ClC(Cl)(Cl)C(Cl)(Cl)Cl [hexachloroethane],Henry solubility constant Hcp,reference: Brockbank (2013),0.0028
same,Henry solubility constant Hcp,[1],0.0026
same,Henry solubility constant Hcp,[2],0.0027
same,Henry solubility constant Hcp,reference: Goldstein (1982),0.001
"ClCCCCl [1,3-dichloropropane]",Henry solubility constant Hcp,reference: Brockbank (2013),0.012
same,Henry solubility constant Hcp,[1],0.01
same,Henry solubility constant Hcp,[2],0.01
Cc1ccc([N+](=O)[O-])cc1 [4-nitrotoluene],Henry solubility constant Hcp,reference: Brockbank (2013),0.89
same,Henry solubility constant Hcp,reference: Goldstein (1982),0.16
CC(C)c1nn(C(=O)NC(C)(C)C)c(=O)n1N [amicarbazone],Henry solubility constant Hcp,reference: MacBean (2012b),1.5e+07
"C=COCC(F)(F)F [(2,2,2-trifluoroethoxy)-ethene]",Henry solubility constant Hcp,[3],0.00054
"Cc1ccc(C)c(O)c1 [1-hydroxy-2,5-dimethylbenzene]",Henry solubility constant Hcp,reference: Brockbank (2013),8.2
C#CCC [1-butyne],Henry solubility constant Hcp,reference: Brockbank (2013),0.00056
CCCCCCCCCC [decane],Henry solubility constant Hcp,reference: Brockbank (2013),1.3e-06
CCOP(=S)(OCC)SCSP(=S)(OCC)OCC [ethion],Henry solubility constant Hcp,[4],0.31
CCC(C)(C)O [2-methyl-2-butanol],Henry solubility constant Hcp,reference: Brockbank (2013),0.65
CC(C)Cl [2-chloropropane],Henry solubility constant Hcp,reference: Brockbank (2013),0.00057
CCCC(=O)OCCC(C)C [3-methylbutyl butanoate],Henry solubility constant Hcp,reference: Brockbank (2013),0.011
"CC(C)C(C)C [2,3-dimethylbutane]",Henry solubility constant Hcp,reference: Brockbank (2013),8e-06
CC(C)N1C(=O)c2ccccc2NS1(=O)=O [bentazone],Henry solubility constant Hcp,[4],130
CCCCCc1ccccc1 [pentylbenzene],Henry solubility constant Hcp,reference: Brockbank (2013),0.0006
"COC(=O)C(F)(F)F [trifluoroethanoic acid, methyl ester]",Henry solubility constant Hcp,[1],0.0011
same,Henry solubility constant Hcp,[2],0.0011
same,Henry solubility constant Hcp,[5],0.0011
CCCCCCC(C)=O [2-octanone],Henry solubility constant Hcp,reference: Brockbank (2013),0.05
CCCC(C)=O [2-pentanone],Henry solubility constant Hcp,reference: Brockbank (2013),0.13
same,Henry solubility constant Hcp,[6],0.17
COP(=S)(OC)Oc1ccc(SC)c(C)c1 [fenthion],Henry solubility constant Hcp,[4],0.45
C/C=C\CCCC [cis-2-heptene],Henry solubility constant Hcp,reference: Brockbank (2013),2.4e-05
CCCI [1-iodopropane],Henry solubility constant Hcp,reference: Brockbank (2013),0.0011
CCCN(CCC)c1c([N+](=O)[O-])cc(C(F)(F)F)cc1[N+](=O)[O-] [trifluralin],Henry solubility constant Hcp,[4],0.0025
same,Henry solubility constant Hcp,reference: HSDB (2015),0.096
"OCCO [1,2-ethanediol]",Henry solubility constant Hcp,[1],6500
same,Henry solubility constant Hcp,[2],6500
"OCC(F)F [2,2-difluoroethanol]",Henry solubility constant Hcp,[1],0.93
same,Henry solubility constant Hcp,[2],0.93
COC(C)=O [methyl ethanoate],Henry solubility constant Hcp,reference: Brockbank (2013),0.085
same,Henry solubility constant Hcp,[2],0.085
C1CCCCC1 [cyclohexane],Henry solubility constant Hcp,reference: Brockbank (2013),5.1e-05
same,Henry solubility constant Hcp,reference: Goldstein (1982),6.2e-05
CCCCOCC [1-ethoxy-butane],Henry solubility constant Hcp,reference: Brockbank (2013),0.0076
ClBr [bromine chloride],Henry solubility constant Hcp,[1],0.0097
same,Henry solubility constant Hcp,[2],0.0097
same,Henry solubility constant Hcp,[7],0.0097
same,Henry solubility constant Hcp,[5],0.0097
COC[C@H](C)N(C(=O)CCl)c1c(C)csc1C [dimethenamid-p],Henry solubility constant Hcp,reference: MacBean (2012b),2100
[O][Cl+][O-] [chlorine dioxide],Henry solubility constant Hcp,[1],0.01
same,Henry solubility constant Hcp,[2],0.01
same,Henry solubility constant Hcp,[7],0.01
same,Henry solubility constant Hcp,[5],0.01
same,Henry solubility constant Hcp,reference: Young (1983),0.01
CCC(C)n1c(=O)[nH]c(C)c(Br)c1=O (stereo not given) [bromacil],Henry solubility constant Hcp,[4],5.2
CC1CCCC1 [methylcyclopentane],Henry solubility constant Hcp,reference: Brockbank (2013),2.8e-05
CCC(O)CC [3-pentanol],Henry solubility constant Hcp,reference: Brockbank (2013),0.6
CCCCCCCCN [1-octanamine],Henry solubility constant Hcp,reference: Brockbank (2013),0.22
"C=CCN(CC=C)CC=C [N,N-di-2-propenyl-2-propen-1-amine]",Henry solubility constant Hcp,reference: Brockbank (2013),0.039
c1ccc2cc3ccccc3cc2c1 [anthracene],Henry solubility constant Hcp,reference: Brockbank (2013),0.33
same,Henry solubility constant Hcp,[3],0.17
same,Henry solubility constant Hcp,reference: Goldstein (1982),0.35
same,Henry solubility constant Hcp,reference: McCarty (1980),0.007
same,Henry solubility constant Hcp,reference: Smith et al. (1981a),0.1
Nc1ccc(-c2ccc(N)cc2)cc1 [benzidine],Henry solubility constant Hcp,[6],25
COc1ccccc1 [methoxybenzene],Henry solubility constant Hcp,reference: Brockbank (2013),0.029
same,Henry solubility constant Hcp,reference: Hine and Weimar (1965),0.0023
